Data: paper PMC3069647 (Journal of medicinal chemistry, 2011)
pIC50: −log10 of the molar value.

Experiments:
[1] = target: T1, human Pgp (Homo sapiens, UniProt P08183); test: Inhibition of Pgp-mediated Rhodamine 123 efflux in L5178 MDR1 cells; conditions: mouse T lymphoma L5178 MDR1 cells
[2] = test system: Pgp; conditions: cited from earlier work
[3] = test system: human Pgp; test: Inhibition of Pgp-mediated Rhodamine 123 efflux in L5178 MDR1 cells; conditions: mouse T lymphoma L5178 MDR1 cells
[4] = target: T1, human Pgp

T1 sequence (P08183 whole entry): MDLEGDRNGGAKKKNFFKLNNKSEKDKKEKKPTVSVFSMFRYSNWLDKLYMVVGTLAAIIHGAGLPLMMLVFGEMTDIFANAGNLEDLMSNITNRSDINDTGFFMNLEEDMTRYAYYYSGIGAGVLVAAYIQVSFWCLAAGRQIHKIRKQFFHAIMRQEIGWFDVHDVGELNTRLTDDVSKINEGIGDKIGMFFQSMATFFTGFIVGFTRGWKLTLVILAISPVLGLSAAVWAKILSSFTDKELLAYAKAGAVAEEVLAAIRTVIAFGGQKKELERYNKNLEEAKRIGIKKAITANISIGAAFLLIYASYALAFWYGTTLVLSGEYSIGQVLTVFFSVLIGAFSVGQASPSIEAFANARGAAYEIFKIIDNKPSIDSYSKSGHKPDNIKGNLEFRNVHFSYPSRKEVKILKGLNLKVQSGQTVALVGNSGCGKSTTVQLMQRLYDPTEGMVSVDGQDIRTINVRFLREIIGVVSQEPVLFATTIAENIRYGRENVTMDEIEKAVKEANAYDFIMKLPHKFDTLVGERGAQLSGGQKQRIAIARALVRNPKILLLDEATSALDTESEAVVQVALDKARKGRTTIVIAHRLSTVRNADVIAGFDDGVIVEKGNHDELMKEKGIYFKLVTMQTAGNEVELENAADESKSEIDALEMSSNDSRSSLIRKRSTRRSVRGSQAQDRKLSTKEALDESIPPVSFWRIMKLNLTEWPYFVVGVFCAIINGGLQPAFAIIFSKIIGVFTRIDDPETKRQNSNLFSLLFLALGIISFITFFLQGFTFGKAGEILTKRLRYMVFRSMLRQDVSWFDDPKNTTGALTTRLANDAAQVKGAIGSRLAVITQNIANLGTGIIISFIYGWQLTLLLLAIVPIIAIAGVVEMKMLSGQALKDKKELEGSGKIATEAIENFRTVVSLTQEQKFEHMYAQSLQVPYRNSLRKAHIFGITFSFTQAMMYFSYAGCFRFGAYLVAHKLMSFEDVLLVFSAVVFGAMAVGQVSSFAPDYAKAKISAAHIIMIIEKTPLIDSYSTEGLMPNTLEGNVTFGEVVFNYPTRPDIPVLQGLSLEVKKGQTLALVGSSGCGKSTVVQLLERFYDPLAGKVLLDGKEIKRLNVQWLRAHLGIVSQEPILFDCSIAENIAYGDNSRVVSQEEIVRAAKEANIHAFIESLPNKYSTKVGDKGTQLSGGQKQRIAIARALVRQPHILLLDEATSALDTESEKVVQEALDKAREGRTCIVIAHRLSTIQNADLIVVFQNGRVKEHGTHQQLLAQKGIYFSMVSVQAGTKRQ

Structure (SMILES)	Ability to inhibit Pgp-mediated cell efflux of R123 (in words) [1]	also measured
C=CCc1ccccc1OCC(O)CNC(C)C (centres unmarked) [Alprenolol]	not effective	–
CN(C)CCC=C1c2ccccc2CCc2ccccc21 [Amitriptyline]	–	Pgp inhibitor classification [2]: inhibitor
CCN(CC)CCCN(c1ccccc1)C1Cc2ccccc2C1 [Aprindine]	weak inhibitors	–
O=C1CCc2ccc(OCCCCN3CCN(c4cccc(Cl)c4Cl)CC3)cc2N1 [Aripiprazole]	–	Ability to inhibit Pgp-mediated cell efflux of R123 (in words) [3]: efficacious Pgp inhibitors
CC1(C)S[C@@H]2[C@H](NC(=O)[C@H](C(=O)O)c3ccsc3)C(=O)N2[C@H]1C(=O)O [Ticarcillin]	not effective	–
[Na+].[Na+].[Na+].[O]=[V]([O-])([O-])[O-] [Vi, Sodium orthovanadate]	–	pIC50 [4]: ~3.15

The next lines start with results.

Ability to inhibit Pgp-mediated cell efflux of R123 (in words) [1]	Structure (SMILES)	also measured
not effective	CC(C)[C@H]1CC[C@H](C(=O)N[C@H](Cc2ccccc2)C(=O)O)CC1 [Nateglinide]	–
weak inhibitors	O=C1Cc2cc(CCN3CCN(c4nsc5ccccc45)CC3)c(Cl)cc2N1 [Ziprasidone]	–
